{"source": "patent US20130123618A1", "about": "“Imaging Agents” (priority 2008, published 2013)", "format_in_all_cases": "cell-based", "key": {"[1]": {"tested_on": "MDA MB231 Human Breast carcinoma cells", "assay": "in vitro amino acid uptake in MDA MB231 cells", "experimental": "(§1) Compounds have been evaluated in vitro for tumor binding specificity (i.e. uptake cells) using a variety of tumor cell lines available in the art, along with reference compounds such as Me-AlB and BCH. Detailed description of these assays can be found in Martarello et al. (2002) Journal of Medicinal Chemistry, 45:2250-2259 and McConathy et al. (2003) Nuclear Medicine and Biology, 30:477-490. […]\n(§2) In the in vitro studies the uptake rate of each amino acid compound is measured in each tumor line, as well as the dominant transport mechanisms of each tumor cell line. After trypsinization, cells are resuspended in serum-free media, then counted on a hemocytometer, with viability assessed through Trypan blue staining. […] The vials are placed in a Cobra-II gamma counter (Packard, Meriden, Conn.), with the activity per cell number determined. […] Saline washes are performed as described above, and the filtered cells' radioactivity determined on the gamma counter. […]\n(§3) The uptake of all compounds were measured in human and rat cancer cell lines and the dominant transport (“A” and “L”) mechanism of each culture were determined. […]"}, "[2]": {"tested_on": "LnCap Human Prostate carcinoma cells", "assay": "in vitro amino acid uptake in LnCap cells", "experimental": "as §1, §2, §3"}, "[3]": {"tested_on": "MIA PaCa-2 Human Pancreas carcinoma cells", "assay": "in vitro amino acid uptake in MIA PaCa-2 cells", "experimental": "as §1, §2, §3"}}}
{"smiles": "N[C@]1(C(=O)O)CCC[C@@H]1[18F]", "note": "(single isomer, unassigned; enantiomer 1) [Enantiomer 1, anti-2-[^18F]FACPC]", "values": [{"measurement": "% Dose uptake per 0.5 × 10−6 Cells", "setting": "[1]", "result": 9.1, "unit": "% Dose/0.5 × 10^−6"}, {"measurement": "% Dose uptake per 0.5 × 10−6 Cells", "setting": "[2]", "result": 6.5, "unit": "% Dose/0.5 × 10^−6"}, {"measurement": "% Dose uptake per 0.5 × 10−6 Cells", "setting": "[3]", "result": 6.8, "unit": "% Dose/0.5 × 10^−6"}]}
